Source: US20080206219A1, “Novel Indications for Transforming Growth Factor-Beta Regulators” (THE REGENCTS OF THE UNIVERSITY OF CALIFORNIA, priority 2003, published 2008)
Entries after “also recorded” stand apart in the source; their conditions may differ.

Key:
[1] = system: gelatinolytic activity in Collα1(I)r/r skin; assay: Substrate conversion assay (DQ-gelatin) on skin lysates; format: biochemical, mice; conditions: inhibitor at 4 mM
Experimental: Shaved back skin pieces from 5-8 week old mice were pulverized in liquid N2 and solubilized in 500 μl buffer (0.25 M sucrose, 5 mM Tris, pH 7.5, protease Inhibitor cocktail mix without EDTA (Roche), 0.25 mg/ml Pefablock (Roche), 0.01 mg/ml Aprotinin (Sigma-Aldrich) using a 2 ml tissue grinder (Fisher) and centrifuged at 4° C. 800×g for 15-min. Supernatants were centrifuged for 1-hr at 100,000×g at 4° C. Supernatants were stored at −80° C., pellets were resuspended in 100 μl solubilization buffer, homogenized by sonication at 4° C., and stored at −80° C. Protein concentration was determined with the BioRad DC Protein assay reagent according to manufacturers instructions (BioRad). Prior to assay, lysate buffers were exchanged using Micro Bio-spin chromatography columns (Bio-gelP-6; BioRad) to 10 mM Tris pH 7.5 according to the manufacturers specifications. […] Reactions were incubated up to 5-hr at 37° C. and fluorescence measured (excitation 485 nm, emission 530 nm) every 3-min on a Microplate Spectrofluorometer (SpectraMax Gemini EM, Molecular Devices) and quantified using SoftMax Pro 4.1 software. […]

[2] = system: Collα1(I)+/+ and Collα1(I)r/r mice; assay: Miles assay: Evans blue leakage in ears after mustard oil challenge; format: in vivo; conditions: for Evans blue dye leakage into vascular stroma after MO, GM6001-treated versus vehicle-treated mice: GM6001 i.p. 100 mg/kg daily for 3-days before MO challenge
Experimental: Evans blue (EB) dye (30 mg/kg in 100 μl PBS; Sigma-Aldrich) was injected into the tail vein of 7- to 8-week-old mice. In some experiments, after 1-min, 30 μl of 5% mustard oil (Phenyl Isothiocyanate, 98%, Sigma-Aldrich) diluted in mineral oil (Sigma-Aldrich) was applied to the dorsal and ventral surfaces of the ear; the application process was repeated 15 minutes later. Isoflurane anesthesized mice were photographed 30 minutes after injection of EB dye. Anesthesized mice were then cardiac perfused, ears removed, blotted dry and weighed. EB dye was extracted from ears in 1 ml of formamide overnight to 48-hrs at 60° C. and measured spectrophotometrically at 610 nm in a SpectraMax 340™ (Molecular Devices). Data are expressed as mean±SEM. Comparisons of the amounts of dye extravasation were evaluated by Mann-Whitney statistical test with p values less than 0.05 considered significant. In some experiments, 5-min prior to the infusion of EB dye, shaved 5-to 7-week old mice were injected (10 μl) intradermally with one of the following agents at the concentrations shown (VEGF120, R&D Systems; VEGF164, Chemicon; histamine, Calbiochem; serotonin, Sigma-Aldrich) and the appearance of a blue spot monitored for 30 minutes at which time mice were euthanized, cardiac perfused, photographed and the area of skin surrounding the site of injection excised (˜5 mm^2), photographed and EB dye extracted as above. […]
The vascular physiology in a mouse model of human Sc, e.g., Collα1(I)^r/r mice, was studied to determine whether an altered balance between collagen synthesis, accumulation and/or degradation was a rate-limiting factor for efficient vascular physiology prior to histopathologic appearance of Sc disease. The ears of Collα1(I)^r/r versus littermate control (Collα1(I)^+/+) mice were treated with vehicle alone (mineral oil; FIG. 1A) or mustard oil (MO; 5% in mineral oil: right ear), an inflammatory agent that induces plasma leakage, vasodilation of capillaries and inflammation in the skin (FIG. 1A). Evans blue dye (30 mg/kg in 100 μl PBS; Sigma Chemical Co., St. Louis, Mo., USA) was injected into the tail vein of the mice. After 1 minute, 5% mustard oil (Phenyl Isothiocyanate, 98%, Sigma) diluted in mineral oil (Sigma) was applied to the dorsal and ventral surfaces of the ear with a cotton swab; the application process was repeated 15 minutes later. […] Isoflurane anesthesized mice were photographed 30 minutes after injection of Evans blue dye. Anesthesized mice were then cardiac perfused, ears removed, blotted dry, and weighed. The Evans blue dye was extracted from the ears with 1 ml of formamide overnight at 60° C. and measured spectrophotometrically at 610 nm in a SpectraMax 340™ (Molecular Devices). Data are expressed as mean±SEM. Comparisons of the amounts of dye extravasation were evaluated by the Fisher's t test with p values less than 0.05 considered significant.
Vascular permeability (VP) responses in control and Collα1(I)^r/r mice treated with a broad spectrum synthetic metalloproteinase inhibitor (MPI), e.g., GM6001 were examined. GM6001 (N-[(2R)-2(hydroxyamidocarbonylmethyl)-4-methylpantanoyl]-L-tryptophan ethylamide), a broad, class-specific metalloproteinase inhibitor (Chemicon, Temecula Calif.), was administered daily i.p. at 100 mg/kg body weight as a 20 mg/ml slurry in 4% carboxymethylcellulose in 0.9% PBS daily for 3-days. Controls were treated with a daily injection of 4% carboxymethylcellulose in PBS. The animals were then subject to cutaneous challenge with MO and qualitative and quantitative assessment of Evans blue dye leakage into vascular stroma (FIG. 5A).

TGFβ1 = assay: IP-Western of mature dimeric TGFβ1 in tissue lysates of treated mice; format: in vivo; conditions: lysates from Collα1(I)+/+ and Collα1(I)r/r mice treated with GM6001
Experimental: After incubation with protein agarose G or A beads (Roche) beads for an additional hour at 4° C., lysates bound to agarose beads were washed three times with HNTG buffer and bound proteins were eluted by boiling in 1× reduced SDS_PAGE sample buffer for 5-min and centrifuged at 13,000 rpm for 10-min. Tissue lysates (20 μg for LAP) or eluted immunoprecipitated complexes were separated by electrophoresis on 10% SDS-polyacrylamine gels, and transferred to nitrocellulous membranes overnight at 4° C. […] Membranes were then washed and developed by using an enhanced chemiluminescence kit (ECL, Amersham Biosciences). Biotinylated-LAP antibodies (R&D System BAF246, 1:1000), biotinylated anti-TGF-β 1 antibodies (R&D System BAF240, 1:1000) and antibodies to MMP14 (Oncogene Sciences 1M397, 1:1,000; Chemicon AB8104, 1:1000 were used for detection on membranes. For loading control in LAP western analysis, rat monoclonal antibody (AbCam YL1/2, 1:5,000) against o-tubulin and goat anti-rat-HRP (Pierce, 1:2000) antibodies were used.

MP activity = conditions: GM6001 i.p. 100 mg/kg, 20 mg/ml slurry in 4% CMC; cited from earlier work
[3] = control versus Colα1(I)r/r mice +/- mustard oil, p<0.03

Row | SMILES | gelatinolytic activity in skin lysate [1] | Evans blue dye leakage into vascular stroma after MO, GM6001-treated versus vehicle-treated mice ([2]; Collα1(I)r/r mice) | Evans blue dye leakage into vascular stroma after MO, GM6001-treated versus vehicle-treated mice ([2]; control Collα1(I)+/+ mice) | effect of GM6001, fold increase (FIG. 5) [2, 3] [fold] | effect of GM6001, increase in % (FIG. 5) [2, 3] [%] | level of ~25 kDa dimeric mature form of TGFβ1 in tissue lysates (TGFβ1) | in vivo MP activity (MP activity)
1 | c1cnc2c(c1)ccc1cccnc12 [1,10 phenanthroline] | completely inhibited | – | – | – | – | – | –
2 | CNC(=O)[C@H](Cc1c[nH]c2ccccc12)NC(=O)[C@@H](CC(=O)NO)CC(C)C [GM6001] | – | significantly above vehicle-treated; also recorded: restored the appropriate acute vascular responses; also recorded: restores acute vascular responses | higher than that observed in MO-treated control mice receiving vehicle alone; also recorded: even more susceptible to MO-induced EB leakage; also recorded: hyper-sensitive to vascular leakage | 1.8 | 54 | markedly decreased; also recorded: reduced | inhibit in vivo MP activity
